We go through two molecules from BindingDB's records for doi:10.3109/14756366.2013.804072 (University of Calgary, 2014).

Targets include Carbonic anhydrase 14 (Homo sapiens, UniProt Q9ULX7); Carbonic anhydrase 1 (Homo sapiens, UniProt P00915); Carbonic anhydrase 6 (Homo sapiens, UniProt P23280); Carbonic anhydrase 13 (Homo sapiens, UniProt Q8N1Q1); Carbonic anhydrase 3 (Homo sapiens, UniProt P07451); Carbonic anhydrase 12 (Homo sapiens, UniProt O43570); Carbonic anhydrase 2 (Homo sapiens, UniProt P00918); Carbonic anhydrase 4 (Homo sapiens, UniProt P22748).

Common to all, as to test: CA Inhibition Assay
Common to all, as to details: pH 7.5; 25 °C

Assay [1] has as its target Carbonic anhydrase 5B, mitochondrial (Homo sapiens, UniProt Q9Y2D0).
Experimental: (§1) An Applied Photophysics stopped-flow instrument has been used for assaying the CA catalysed CO2 hydration activity. […] The CO2 concentrations ranged from 1.7 to 17 mM for the determination of the kinetic parameters and inhibition constants. […] The uncatalyzed rates were determined in the same manner and subtracted from the total observed rates. Stock solutions of inhibitor (0.1 mM) were prepared in distilled deionized water and dilutions up to 0.01nM were done thereafter with distilled-deionized water.
Assay [2] concerns the target Carbonic anhydrase 5A, mitochondrial (Homo sapiens, UniProt P35218).
Experimental: as §1

Chain of Carbonic anhydrase 14 (Q9ULX7 whole entry): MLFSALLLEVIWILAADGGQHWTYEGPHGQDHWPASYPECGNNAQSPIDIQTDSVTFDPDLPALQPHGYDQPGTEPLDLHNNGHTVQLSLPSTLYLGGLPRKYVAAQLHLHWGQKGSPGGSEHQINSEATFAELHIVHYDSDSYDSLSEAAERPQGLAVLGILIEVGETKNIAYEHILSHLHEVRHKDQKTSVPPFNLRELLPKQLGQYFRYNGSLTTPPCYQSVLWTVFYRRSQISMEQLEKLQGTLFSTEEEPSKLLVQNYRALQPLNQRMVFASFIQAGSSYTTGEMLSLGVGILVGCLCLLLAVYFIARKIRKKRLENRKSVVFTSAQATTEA
Chain of Carbonic anhydrase 5A, mitochondrial (P35218 whole entry): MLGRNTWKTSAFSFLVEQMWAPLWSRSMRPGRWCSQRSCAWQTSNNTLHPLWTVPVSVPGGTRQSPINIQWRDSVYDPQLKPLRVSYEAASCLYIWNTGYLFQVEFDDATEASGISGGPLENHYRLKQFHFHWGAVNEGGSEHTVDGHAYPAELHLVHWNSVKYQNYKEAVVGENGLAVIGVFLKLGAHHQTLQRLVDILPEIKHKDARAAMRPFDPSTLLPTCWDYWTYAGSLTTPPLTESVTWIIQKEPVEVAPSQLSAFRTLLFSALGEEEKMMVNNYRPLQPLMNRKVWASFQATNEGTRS
Chain of Carbonic anhydrase 6 (P23280 whole entry): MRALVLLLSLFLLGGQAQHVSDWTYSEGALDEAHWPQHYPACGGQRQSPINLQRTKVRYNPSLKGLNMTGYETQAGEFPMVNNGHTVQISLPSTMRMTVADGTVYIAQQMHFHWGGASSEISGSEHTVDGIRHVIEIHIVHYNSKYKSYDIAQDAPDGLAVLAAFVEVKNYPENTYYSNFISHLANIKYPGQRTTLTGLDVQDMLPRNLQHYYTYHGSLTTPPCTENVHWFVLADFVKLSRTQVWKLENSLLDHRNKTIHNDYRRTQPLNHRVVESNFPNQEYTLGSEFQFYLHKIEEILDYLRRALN
Chain of Carbonic anhydrase 5B, mitochondrial (Q9Y2D0 whole entry): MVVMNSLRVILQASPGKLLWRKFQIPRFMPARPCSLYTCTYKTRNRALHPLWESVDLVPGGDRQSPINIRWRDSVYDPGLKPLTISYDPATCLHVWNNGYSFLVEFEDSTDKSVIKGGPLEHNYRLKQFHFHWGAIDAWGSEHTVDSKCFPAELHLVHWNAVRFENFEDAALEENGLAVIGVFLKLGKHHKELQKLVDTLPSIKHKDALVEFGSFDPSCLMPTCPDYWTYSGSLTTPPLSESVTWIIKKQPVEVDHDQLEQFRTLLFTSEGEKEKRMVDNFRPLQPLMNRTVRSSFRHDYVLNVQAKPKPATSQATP
Chain of Carbonic anhydrase 12 (O43570 whole entry): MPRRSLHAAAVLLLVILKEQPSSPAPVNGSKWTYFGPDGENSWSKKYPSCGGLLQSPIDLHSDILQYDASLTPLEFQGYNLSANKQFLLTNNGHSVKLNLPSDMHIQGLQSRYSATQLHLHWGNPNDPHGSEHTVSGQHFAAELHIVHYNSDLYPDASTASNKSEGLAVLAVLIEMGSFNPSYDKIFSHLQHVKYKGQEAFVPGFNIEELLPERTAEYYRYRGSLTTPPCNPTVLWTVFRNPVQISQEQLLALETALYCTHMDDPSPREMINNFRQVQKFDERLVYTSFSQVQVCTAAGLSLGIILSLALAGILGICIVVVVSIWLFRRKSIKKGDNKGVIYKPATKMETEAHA
Chain of Carbonic anhydrase 3 (P07451 whole entry): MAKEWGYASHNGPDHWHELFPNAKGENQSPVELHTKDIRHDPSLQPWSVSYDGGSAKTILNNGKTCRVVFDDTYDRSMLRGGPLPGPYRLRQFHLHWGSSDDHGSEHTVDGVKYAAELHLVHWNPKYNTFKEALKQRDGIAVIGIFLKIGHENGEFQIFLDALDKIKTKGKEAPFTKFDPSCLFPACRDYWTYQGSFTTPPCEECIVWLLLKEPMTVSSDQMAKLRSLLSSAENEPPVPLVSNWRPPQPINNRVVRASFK
Chain of Carbonic anhydrase 1 (P00915 whole entry): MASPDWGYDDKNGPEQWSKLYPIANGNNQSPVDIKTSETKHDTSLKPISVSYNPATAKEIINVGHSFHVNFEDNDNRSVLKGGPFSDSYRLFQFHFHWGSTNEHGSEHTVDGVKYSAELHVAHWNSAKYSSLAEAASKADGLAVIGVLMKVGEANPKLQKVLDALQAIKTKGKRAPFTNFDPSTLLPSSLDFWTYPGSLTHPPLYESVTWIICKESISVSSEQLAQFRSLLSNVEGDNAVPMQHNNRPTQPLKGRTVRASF
Chain of Carbonic anhydrase 13 (Q8N1Q1 whole entry): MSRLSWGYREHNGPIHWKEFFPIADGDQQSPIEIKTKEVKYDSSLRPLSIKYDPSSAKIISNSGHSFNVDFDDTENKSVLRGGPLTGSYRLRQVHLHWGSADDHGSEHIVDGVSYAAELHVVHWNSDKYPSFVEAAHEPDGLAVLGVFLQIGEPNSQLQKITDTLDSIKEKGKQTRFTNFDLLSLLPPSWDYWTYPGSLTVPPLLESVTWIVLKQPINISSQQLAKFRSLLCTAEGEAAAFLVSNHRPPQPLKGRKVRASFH
Chain of Carbonic anhydrase 4 (P22748 whole entry): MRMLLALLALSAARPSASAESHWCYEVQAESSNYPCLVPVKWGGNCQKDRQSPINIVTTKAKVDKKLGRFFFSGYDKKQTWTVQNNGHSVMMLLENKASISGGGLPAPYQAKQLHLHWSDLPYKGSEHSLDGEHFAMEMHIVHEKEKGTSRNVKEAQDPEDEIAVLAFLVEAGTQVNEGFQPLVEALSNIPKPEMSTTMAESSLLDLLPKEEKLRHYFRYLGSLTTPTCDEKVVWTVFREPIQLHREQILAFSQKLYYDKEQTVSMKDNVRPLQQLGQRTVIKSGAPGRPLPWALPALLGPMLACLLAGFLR
Experimental for Carbonic anhydrase 12: as §1
Experimental for Carbonic anhydrase 13: as §1
Experimental for Carbonic anhydrase 14: as §1
Experimental for Carbonic anhydrase 2: as §1
Experimental for Carbonic anhydrase 3: as §1
Experimental for Carbonic anhydrase 4: as §1
Experimental for Carbonic anhydrase 6: as §1

With `NS(=O)(=O)c1cc(Cl)c(Cl)c(S(N)(=O)=O)c1` [Dichlorophenamide, DCP], on Carbonic anhydrase 14, the inhibitory constant (Ki) turned out to be 340 nM.
Consider `CC1(C)[C@@H](O)C[C@H]2[C@](C)(O)[C@@H]3CCC4[C@@H](O)C3(C[C@@H](O)[C@@]21O)C[C@@]4(C)O` (stereo partly specified) [Grayanotoxin III (GTX3)], for which the inhibition constant Ki on Carbonic anhydrase 1 came out at 8010 nM; at Carbonic anhydrase 6, 860 nM; at Carbonic anhydrase 13, 690 nM; on Carbonic anhydrase 3, 760 nM; at Carbonic anhydrase 12 it was 2150 nM; at Carbonic anhydrase 14 it was 1470 nM. The Ki came out at 6130 nM at Carbonic anhydrase 2, 510 nM at Carbonic anhydrase 4, 740 nM in [1] and 1140 nM in assay [2].

What is called Ki is a measure of affinity in units of concentration, obtained from inhibition or displacement. Read a low Ki as higher affinity.
